According to patent US9637490B2, “Antifungal 5,6-dihydro-4-[(difluoroethyl)phenyl]-4H-pyrrolo[1,2-α][1,4]benzodiazepine and 4-(difluoroethyl)phenyl-6H-pyrrolo[1,2-α][1,4]benzodiazepine derivatives” (Janssen Pharmaceutica NV, priority 2010, dated 2017):

Tests used:
[1] = tested on: Rhizomucor miehei IHEM13391; test: Antifungal activity in vitro (resazurin susceptibility screen), Inf. K; type: cell-based; details: Rhizomucor miehei, IHEM13391, Rhizomucor miehei IHEM13391; 37 °C, 48 hours, resa time 17 hours
How it was run: (§1)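 Compound dilutions spotted on plates, highest in-test concentration 64 μM. Inoculum of 10^3 cfu/well in RPMI-MOPS pH 7.0 added, then incubated by species (yeasts 24 h at 37° C; dermatophytes one week or more at 27° C). Resazurin added for a further period before fluorescence reading.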

[2] = tested on: Microsporum canis (strain B68128); test: Test D.4.1: activity against M. canis in guinea-pigs after oral treatment for 7 consecutive days; type: in vivo; set-up: key to semi-quantitative lesion score (mean): lesion score 0–3.5 by severity and size of lesion
How it was run: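 Female Duncan-Hartley guinea pigs, scarified depilated dorsum inoculated with 10^6 cfu M. canis spores in honey-water. Compounds in methocel 0.5%/Tween 80 vehicle given by oral gavage once daily for 7 days, starting ~2 h pre-infection; itraconazole reference. Lesions scored semi-quantitatively (0–3.5) on days 3–20 post-infection; mean scores.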

[3] = In vivo pharmacokinetic determinations (bioavailability) in guinea pigs; details: guinea pig, po
Procedure: Three animals (mean weight 20±7 g for mice and 275±20 for Guinea pigs) were used per dose route, time point and formulation.
For the oral (PO) solution formulation, compound was dissolved in a 20% hydroxypropyl-β-cyclodextrin (HP-β-CD) solution at a final concentration of 1 mg/ml. HCl was added to facilitate dissolution. After dissolution, the pH was brought up to 3.7 with NaOH. Mannitol was added to make the solution isotonic. For the PO suspension formulation, compound was suspended in 0.5% methocel at a final concentration of 1 mg/ml. The formulations were stored at room temperature, protected from light and analysed quantitatively with LC-MS/MS on the day of preparation. Stability of the formulations was checked on the day of dosing.
The animals were dosed orally by gastric intubation at 10 ml/kg to obtain a final dose 10 mg/kg. Three dosed animals were sacrificed for blood sampling at 15 and 30 min, 1, 2, 3, 4, 6, 8 and 24 h after PO dose administration as a solution and at 30 min, 1, 2, 4, 6, 8 and 24 h after PO dose administration as a suspension.
Blood was collected by multiple sampling from a tail vein into Multivette® 600 K3E tubes (Sarstedt). Samples were placed immediately at approximately 4° C. and plasma was obtained following centrifugation at 4° C. for 10 minutes at approximately 1900×g. All samples were shielded from daylight and stored at ≦−18° C. prior to analysis.
Plasma samples were analysed for dosed compound using a qualified research LC-MS/MS method. The key analytical performance (linearity, upper and lower limit of quantification, accuracy and precision) of the method was reported together with the plasma concentrations.
A limited pharmacokinetic analysis was performed using WinNonlin™ Professional (Version 5.2.1). A non-compartmental analysis using the lin/log trapezoidal rule with lin/log interpolation was used for all data.

[4] = tested on: Scedosporium prolificans IHEM21157; test: Antifungal activity in vitro (resazurin susceptibility screen), Inf. I; type: cell-based; details: Lomentospora prolificans, 37 °C, 48 hours, resa time 17 hours
How it was run: as §1

[5] = tested on: Scedosporium apiospermum IHEM3817; test: Antifungal activity in vitro (resazurin susceptibility screen), Inf. H; type: cell-based; details: Scedosporium apiospermum, IHEM3817, Scedosporium apiospermum IHEM3817; 37 °C, 48 hours, resa time 17 hours
How it was run: as §1

## CC(F)(F)c1ccc(C2=NCc3c(Cl)cccc3-n3cccc32)cc1 [Compound 4, 7-chloro-4-[4-(1,1-difluoroethyl)phenyl]-6H-pyrrolo[1,2-a][1,4]benzodiazepine]
[1]
  IC50: > 64.6 µM
[2]; oral 5 mg/kg once daily for 7 days, 3 DPI
  semi-quantitative lesion score (mean): 0
[2]; oral 5 mg/kg once daily for 7 days, 5 DPI
  semi-quantitative lesion score (mean): 0.67
[2]; oral 5 mg/kg once daily for 7 days, 7 DPI
  semi-quantitative lesion score (mean): 1.50
[2]; oral 5 mg/kg once daily for 7 days, 10 DPI
  semi-quantitative lesion score (mean): 2.00
[2]; oral 5 mg/kg once daily for 7 days, 12 DPI
  semi-quantitative lesion score (mean): 2.17
[2]; oral 5 mg/kg once daily for 7 days, 14 DPI
  semi-quantitative lesion score (mean): 1.83
[2]; oral 5 mg/kg once daily for 7 days, 17 DPI
  semi-quantitative lesion score (mean): 1.33
[2]; oral 5 mg/kg once daily for 7 days, 20 DPI
  semi-quantitative lesion score (mean): 1.17
[2]; oral 10 mg/kg once daily for 7 days
  activity compared with the terbinafine group (G2, 10 mg/kg): comparable to G2
[2]; oral 10 mg/kg once daily for 7 days, 3 DPI
  semi-quantitative lesion score (mean): 0
[2]; oral 10 mg/kg once daily for 7 days, 5 DPI
  semi-quantitative lesion score (mean): 0
[2]; oral 10 mg/kg once daily for 7 days, 7 DPI
  semi-quantitative lesion score (mean): 0.33
[2]; oral 10 mg/kg once daily for 7 days, 10 DPI
  semi-quantitative lesion score (mean): 1.00
[2]; oral 10 mg/kg once daily for 7 days, 12 DPI
  semi-quantitative lesion score (mean): 1.50
[2]; oral 10 mg/kg once daily for 7 days, 14 DPI
  semi-quantitative lesion score (mean): 1.50
[2]; oral 10 mg/kg once daily for 7 days, 17 DPI
  semi-quantitative lesion score (mean): 0.50
[2]; oral 10 mg/kg once daily for 7 days, 20 DPI
  semi-quantitative lesion score (mean): 0.33
[2]; oral 40 mg/kg once daily for 7 days
  activity compared with the terbinafine group (G2, 10 mg/kg): remarkably more active than the terbinafine group
[2]; oral 40 mg/kg once daily for 7 days, 3 DPI
  semi-quantitative lesion score (mean): 0
[2]; oral 40 mg/kg once daily for 7 days, 5 DPI
  semi-quantitative lesion score (mean): 0.17
[2]; oral 40 mg/kg once daily for 7 days, 7 DPI
  semi-quantitative lesion score (mean): 0.17
[2]; oral 40 mg/kg once daily for 7 days, 10 DPI
  semi-quantitative lesion score (mean): 0.17
[2]; oral 40 mg/kg once daily for 7 days, 12 DPI
  semi-quantitative lesion score (mean): 0.17
[2]; oral 40 mg/kg once daily for 7 days, 14 DPI
  semi-quantitative lesion score (mean): 0
[2]; oral 40 mg/kg once daily for 7 days, 17 DPI
  semi-quantitative lesion score (mean): 0.17
[2]; oral 40 mg/kg once daily for 7 days, 20 DPI
  semi-quantitative lesion score (mean): 0.17
[3]
  bioavailability: 35%
[4]
  IC50: 0.148 µM
[5]
  IC50: > 64.6 µM
